According to ChEMBL document CHEMBL5724914, “Linking interpersonal differences in gut microbiota composition and drug biotransformation activity” (2024):

What was measured:
[1] = (§1) The drug is tested on Z-027 corresponding to metagenome with ENA study accession number: PRJEB37062 and ENA sample accession number: ERS12561826 for biotransformation under anaerobic condition. The drug concentrations were measured over 9 timepoints collected between 0 and 24 hours of incubation by liquid-chromatography-coupled mass spectrometry (LC–MS); conditions: 2 µM
[2] = human gut metagenome, 24 h, 2 µM
[3] = (§2) The drug is tested on Z-020 corresponding to rabbit gut metagenome with ENA study accession number: PRJEB37062 and ENA sample accession number: ERS12561819 for biotransformation under anaerobic condition. The drug concentrations were measured over 9 timepoints collected between 0 and 24 hours of incubation by liquid-chromatography-coupled mass spectrometry (LC–MS); conditions: 2 µM
[4] = human gut metagenome, 24 h, 2 µM; remark: listed apart in the source
[5] = as §2, with “WLS-220” for “Z-020”, “human” for “rabbit”, “ERS12561769” for “ERS12561819”; conditions: 2 µM
[6] = as §2, with “WLS-370” for “Z-020”, “human” for “rabbit”, “ERS12561793” for “ERS12561819”; conditions: 2 µM
[7] = human gut metagenome, 24 h, 2 µM; remark: listed apart in the source
[8] = as §2, with “WLS-240” for “Z-020”, “human” for “rabbit”, “ERS12561773” for “ERS12561819”; conditions: 2 µM
[9] = as §2, with “WLS-350” for “Z-020”, “human” for “rabbit”, “ERS12561789” for “ERS12561819”; conditions: 2 µM
[10] = as §2, with “Z-003” for “Z-020”, “pig” for “rabbit”, “ERS12561803” for “ERS12561819”; conditions: 2 µM
[11] = human gut metagenome, 24 h, 2 µM; remark: listed apart in the source
[12] = human gut metagenome, 24 h, 2 µM; remark: listed apart in the source
[13] = as §1, with “Z-004” for “Z-027”, “ERS12561804” for “ERS12561826”; conditions: 2 µM
[14] = as §2, with “Z-013” for “Z-020”, “ERS12561813” for “ERS12561819”; conditions: 2 µM
[15] = human gut metagenome, 24 h, 2 µM; remark: listed apart in the source
[16] = as §1, with “Z-026” for “Z-027”, “ERS12561825” for “ERS12561826”; conditions: 2 µM
[17] = human gut metagenome, 24 h, 2 µM; remark: listed apart in the source
[18] = human gut metagenome, 24 h, 2 µM; remark: listed apart in the source
[19] = human gut metagenome, 24 h, 2 µM; remark: listed apart in the source
[20] = as §1, with “Z-010” for “Z-027”, “ERS12561810” for “ERS12561826”; conditions: 2 µM
Note: call rule not given here.

| Structure (SMILES) | Bacterial Biotransformation [1] | Bacterial Biotransformation [2] | Bacterial Biotransformation [3] | Bacterial Biotransformation [4] | Bacterial Biotransformation [5] | Bacterial Biotransformation [6] | Bacterial Biotransformation [7] | Bacterial Biotransformation [8] | Bacterial Biotransformation [9] | Bacterial Biotransformation [10] | Bacterial Biotransformation [11] | Bacterial Biotransformation [12] | Bacterial Biotransformation [13] | Bacterial Biotransformation [14] | Bacterial Biotransformation [15] | Bacterial Biotransformation [16] | Bacterial Biotransformation [17] | Bacterial Biotransformation [18] | Bacterial Biotransformation [19] | Bacterial Biotransformation [20] |
| --- | --- | --- | --- | --- | --- | --- | --- | --- | --- | --- | --- | --- | --- | --- | --- | --- | --- | --- | --- | --- |
| CC(=O)O[C@]1(C(C)=O)CC[C@H]2[C@@H]3C=C(C)C4=CC(=O)CC[C@]4(C)[C@H]3CC[C@@]21C [MEGESTROL ACETATE] | Compound metabolized | Compound metabolized | Compound metabolized | Compound metabolized | Compound metabolized | Compound metabolized | Compound metabolized | Compound metabolized | Compound metabolized | Compound metabolized | Compound metabolized | Compound metabolized | Compound metabolized | Compound metabolized | Compound metabolized | Compound metabolized | Compound metabolized | Compound metabolized | Compound metabolized | Compound metabolized |
| CC12CC3CC(C)(C1)CC(N)(C3)C2 [MEMANTINE] | Compound NOT metabolized | Compound NOT metabolized | Compound NOT metabolized | Compound NOT metabolized | Compound NOT metabolized | Compound NOT metabolized | Compound NOT metabolized | Compound NOT metabolized | Compound NOT metabolized | Compound NOT metabolized | Compound NOT metabolized | Compound NOT metabolized | Compound NOT metabolized | Compound NOT metabolized | Compound NOT metabolized | Compound NOT metabolized | Compound NOT metabolized | Compound NOT metabolized | Compound metabolized | Compound NOT metabolized |
| Cc1cc(C)cc(OCC2CNC(=O)O2)c1 (stereo not given) [METAXALONE] | Compound metabolized | Compound metabolized | Compound NOT metabolized | Compound metabolized | Compound metabolized | Compound metabolized | Compound metabolized | Compound metabolized | Compound metabolized | Compound NOT metabolized | Compound NOT metabolized | Compound metabolized | Compound NOT metabolized | Compound NOT metabolized | Compound metabolized | Compound metabolized | Compound metabolized | Compound metabolized | Compound metabolized | Compound NOT metabolized |
| COC(=O)C(c1ccccc1)C1CCCCN1 (stereo not given) [METHYLPHENIDATE] | Compound NOT metabolized | Compound NOT metabolized | Compound NOT metabolized | Compound metabolized | Compound metabolized | Compound NOT metabolized | Compound metabolized | Compound metabolized | Compound NOT metabolized | Compound metabolized | Compound NOT metabolized | Compound NOT metabolized | Compound metabolized | Compound NOT metabolized | Compound NOT metabolized | Compound NOT metabolized | Compound NOT metabolized | Compound NOT metabolized | Compound metabolized | Compound NOT metabolized |
| CN1CCN2c3ccccc3Cc3ccccc3C2C1 (stereo not given) [MIANSERIN] | Compound NOT metabolized | Compound NOT metabolized | Compound NOT metabolized | Compound NOT metabolized | Compound metabolized | Compound NOT metabolized | Compound metabolized | Compound NOT metabolized | Compound NOT metabolized | Compound metabolized | Compound NOT metabolized | Compound metabolized | Compound NOT metabolized | Compound NOT metabolized | Compound NOT metabolized | Compound NOT metabolized | Compound NOT metabolized | Compound NOT metabolized | Compound metabolized | Compound metabolized |
| CC#C[C@]1(O)CC[C@H]2[C@@H]3CCC4=CC(=O)CCC4=C3[C@@H](c3ccc(N(C)C)cc3)C[C@@]21C [MIFEPRISTONE] | Compound NOT metabolized | Compound NOT metabolized | Compound metabolized | Compound metabolized | Compound metabolized | Compound NOT metabolized | Compound metabolized | Compound metabolized | Compound NOT metabolized | Compound metabolized | Compound NOT metabolized | Compound NOT metabolized | Compound NOT metabolized | Compound metabolized | Compound NOT metabolized | Compound NOT metabolized | Compound metabolized | Compound NOT metabolized | Compound metabolized | Compound metabolized |
| CC(C)(C)NCC(O)COc1cccc2c1CC(O)C(O)C2 (stereo not given) [NADOLOL] | Compound NOT metabolized | Compound NOT metabolized | Compound NOT metabolized | Compound metabolized | Compound NOT metabolized | Compound NOT metabolized | Compound metabolized | Compound metabolized | Compound metabolized | Compound metabolized | Compound NOT metabolized | Compound NOT metabolized | Compound NOT metabolized | Compound NOT metabolized | Compound NOT metabolized | Compound NOT metabolized | Compound NOT metabolized | Compound NOT metabolized | Compound metabolized | Compound metabolized |
| CC(C)[C@H]1CC[C@H](C(=O)N[C@H](Cc2ccccc2)C(=O)O)CC1 [NATEGLINIDE] | Compound metabolized | Compound metabolized | Compound metabolized | Compound metabolized | Compound metabolized | Compound metabolized | Compound metabolized | Compound metabolized | Compound metabolized | Compound metabolized | Compound metabolized | Compound metabolized | Compound NOT metabolized | Compound metabolized | Compound metabolized | Compound NOT metabolized | Compound metabolized | Compound metabolized | Compound metabolized | Compound metabolized |
